Values after ≈ are worked out from the molar mass of the structure shown. Like-named read-outs stand apart in the source and are kept apart here.

The test system of test [1] is E. coli K88+. Type of test: cell-based, Escherichia coli K88+. Particulars: individually.
Another test relates to S. choleraesuis. The test is described as follows: MIC by two-fold broth dilution method. Type of test: cell-based. Particulars: Salmonella enterica, 24 h, read-out: MIC values, Salmonella choleraesius.
The test system of test [2] is E. coli K88+. Kind of test: MIC by two-fold broth dilution method. Particulars: Escherichia coli, 24 h, read-out: MIC values, Escheria coli K88^+. Type of test: cell-based.
The subject of another test is Cl. perfringens. The test is described as follows: microbe, parasite or virus in culture. Type of test: cell-based. The note with it: Clostridium perfringens, 24 h, read-out: MIC values, Clostrisium perfringens.

`C=CCc1ccc(O)c(OC)c1` [Eugenol, eugenol]: the “Lag phase (λ)” value in the test on E. coli K88+ [1] (dosage 0.25 mmol/L) came to 1.77; in the test with E. coli K88+ [1] (dosage 0.5 mmol/L), 1.91. The values for the MIC with S. choleraesuis, with E. coli K88+ [2] and in the test on Cl. perfringens were 2500 µM (≈ 411 µg/mL), 2500 µM (≈ 411 µg/mL) and 4000 µM (≈ 657 µg/mL), respectively.
As for `Cc1ccc(C(C)C)c(O)c1` [Thymol, thymol], the “Lag phase (λ)” value in the test with E. coli K88+ [1] (dosage 0.25 mmol/L) stood at 1.66; in the test on E. coli K88+ [1] (dosage 0.5 mmol/L) it was 1.65. Also, the MIC with S. choleraesuis was found to be 1000 µM (≈ 150 µg/mL); in the test on E. coli K88+ [2], 1500 µM (≈ 225 µg/mL); in the test with Cl. perfringens it was 1000 µM (≈ 150 µg/mL).
